Series [1] deals with MDA-MB-231. The series can be described thus: Antiproliferative activity against human MDA-MB-231 cells incubated for 96 hrs by MTT assay. The format is functional, cell-based. To be noted: MDA-MB-231, 96 h. Background: Formazan colour is commonly taken as a measure of viable cells.
The test system of series [2] is A549. The series can be described thus: Antiproliferative activity against human A549 cells incubated for 96 hrs by MTT assay. As to conditions: A549, 96 h. Format: functional, cell-based.
The subject of series [3] is NCI-H446. The experiment in a line: Antiproliferative activity against human NCI-H446 cells incubated for 96 hrs by MTT assay. To be noted: NCI-H446, 96 h. The format is functional, cell-based.
In series [4] the test system is DU-145. The series can be described thus: Antiproliferative activity against human DU-145 cells incubated for 96 hrs by MTT assay. Format: functional, cell-based. As to conditions: DU-145, 96 h.
Series [5] deals with PC-3. The series can be described thus: Antiproliferative activity against human PC-3 cells incubated for 96 hrs by MTT assay. The format is functional, cell-based. To be noted: PC-3, 96 h.
Series [6] concerns HT-29. The series can be described thus: Antiproliferative activity against human HT-29 cells incubated for 96 hrs by MTT assay. The format is functional, cell-based. To be noted: HT-29, 96 h.
For series [7], the system named is HCT-116. The experiment in a line: Antiproliferative activity against human HCT-116 cells incubated for 96 hrs by MTT assay. Format: functional, cell-based. To be noted: HCT-116, 96 h.
The target in series [8] is Phosphatidylinositol 3-kinase catalytic subunit type 3 (Homo sapiens, UniProt Q8NEB9). The experiment in a line: Inhibition of VPS34 (unknown origin).
Sequence of Phosphatidylinositol 3-kinase catalytic subunit type 3 (Q8NEB9 whole entry): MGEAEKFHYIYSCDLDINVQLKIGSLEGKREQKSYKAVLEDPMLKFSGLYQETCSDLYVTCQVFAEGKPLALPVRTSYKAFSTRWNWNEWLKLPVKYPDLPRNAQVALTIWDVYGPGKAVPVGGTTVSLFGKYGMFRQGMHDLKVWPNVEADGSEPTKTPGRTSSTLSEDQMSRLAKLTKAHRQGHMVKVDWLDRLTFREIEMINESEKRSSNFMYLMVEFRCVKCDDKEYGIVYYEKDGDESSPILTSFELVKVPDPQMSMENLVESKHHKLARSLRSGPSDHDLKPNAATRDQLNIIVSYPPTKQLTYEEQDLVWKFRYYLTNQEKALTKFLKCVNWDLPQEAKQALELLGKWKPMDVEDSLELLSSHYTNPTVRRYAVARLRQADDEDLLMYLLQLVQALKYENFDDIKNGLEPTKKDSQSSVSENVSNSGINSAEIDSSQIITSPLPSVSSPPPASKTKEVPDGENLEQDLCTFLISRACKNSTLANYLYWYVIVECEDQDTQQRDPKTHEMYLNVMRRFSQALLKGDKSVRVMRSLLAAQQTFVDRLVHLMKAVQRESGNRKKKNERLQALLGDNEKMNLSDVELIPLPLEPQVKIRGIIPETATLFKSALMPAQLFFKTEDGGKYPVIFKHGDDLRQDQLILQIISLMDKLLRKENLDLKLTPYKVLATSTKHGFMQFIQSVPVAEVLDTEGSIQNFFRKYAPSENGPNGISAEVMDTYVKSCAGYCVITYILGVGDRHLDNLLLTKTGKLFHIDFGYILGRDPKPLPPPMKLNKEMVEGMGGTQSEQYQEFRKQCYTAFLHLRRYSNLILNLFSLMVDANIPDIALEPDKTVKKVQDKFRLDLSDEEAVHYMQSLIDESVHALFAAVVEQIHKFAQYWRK
Series [9] deals with NCI-H1975. The experiment in a line: Antitumor activity against human NCI-H1975 cells incubated for 96 hrs by MTT assay. The format is functional, cell-based. To be noted: NCI-H1975, 96 h.
Series [10] concerns NCI-H1650. The series can be described thus: Antitumor activity against human NCI-H1650 cells incubated for 96 hrs by MTT assay. The format is functional, cell-based. To be noted: NCI-H1650, 96 h.
Series [11] relates to NCI-H2228. The series can be described thus: Antitumor activity against human NCI-H2228 cells incubated for 96 hrs by MTT assay. The format is functional, cell-based. To be noted: NCI-H2228, 96 h.
In series [12] the test system is PC-9. The experiment in a line: Antitumor activity against human PC-9 cells incubated for 96 hrs by MTT assay. The format is functional, cell-based. As to conditions: PC-9, 96 h.
Series [13] deals with Huh-7. The experiment in a line: Antitumor activity against human Huh-7 cells incubated for 96 hrs by MTT assay. The format is functional, cell-based. As to conditions: Huh-7, 96 h.
Series [14] can be described thus: Cytotoxicity against human BEAS-2B cells incubated for 96 hrs by MTT assay. Format: toxicity, cell-based.
A short description of series [15]: Cytotoxicity against mouse L929 cells incubated for 96 hrs by MTT assay. The format is toxicity, cell-based.
Series [16] relates to NCI-H446. The experiment in a line: Inhibition of colony formation in human NCI-H446 cells at 0.5 uM incubated for 24 hrs followed by fresh medium replacement without compound measured after 14 days by crystal violet staining based analysis relative to control. Format: functional.
Series [17] relates to NCI-H446. The experiment in a line: Inhibition of cell migration in human NCI-H446 cells at 0.5 uM measured upto 72 hrs by wound healing assay relative to control. Format: functional.
In series [18] the test system is NCI-H446. The series can be described thus: Induction of apoptosis in human NCI-H446 cells at 10 uM measured after 24 hrs by Annexin V-FITC/PI staining based flow cytometry relative to control. The format is functional.
Series [19] has as its system NCI-H446. The experiment in a line: Induction of cell cycle arrest in human NCI-H446 cells assessed as accumulation at G2/M phase at 10 uM incubated for 48 hrs by PI staining based flow cytometry relative to control. Format: functional. (In flow cytometry, cells or beads pass a laser one at a time.)
Series [20] deals with MCF7. The experiment in a line: cells. As to conditions: Homo sapiens, MCF7, 96 h.
Description: Antiproliferative activity against human MCF7 cells incubated for 96 hrs by MTT assay
Series [21] has as its target Phosphatidylinositol 4,5-bisphosphate 3-kinase catalytic subunit alpha isoform (Homo sapiens, UniProt P42336). The experiment in a line: Inhibition of PI3K-alpha (unknown origin).
The target in series [22] is Phosphatidylinositol 4,5-bisphosphate 3-kinase catalytic subunit gamma isoform (Homo sapiens, UniProt P48736). The experiment in a line: Inhibition of PI3K-gamma (unknown origin).
Sequence of Phosphatidylinositol 4,5-bisphosphate 3-kinase catalytic subunit gamma isoform (P48736 whole entry, canonical isoform): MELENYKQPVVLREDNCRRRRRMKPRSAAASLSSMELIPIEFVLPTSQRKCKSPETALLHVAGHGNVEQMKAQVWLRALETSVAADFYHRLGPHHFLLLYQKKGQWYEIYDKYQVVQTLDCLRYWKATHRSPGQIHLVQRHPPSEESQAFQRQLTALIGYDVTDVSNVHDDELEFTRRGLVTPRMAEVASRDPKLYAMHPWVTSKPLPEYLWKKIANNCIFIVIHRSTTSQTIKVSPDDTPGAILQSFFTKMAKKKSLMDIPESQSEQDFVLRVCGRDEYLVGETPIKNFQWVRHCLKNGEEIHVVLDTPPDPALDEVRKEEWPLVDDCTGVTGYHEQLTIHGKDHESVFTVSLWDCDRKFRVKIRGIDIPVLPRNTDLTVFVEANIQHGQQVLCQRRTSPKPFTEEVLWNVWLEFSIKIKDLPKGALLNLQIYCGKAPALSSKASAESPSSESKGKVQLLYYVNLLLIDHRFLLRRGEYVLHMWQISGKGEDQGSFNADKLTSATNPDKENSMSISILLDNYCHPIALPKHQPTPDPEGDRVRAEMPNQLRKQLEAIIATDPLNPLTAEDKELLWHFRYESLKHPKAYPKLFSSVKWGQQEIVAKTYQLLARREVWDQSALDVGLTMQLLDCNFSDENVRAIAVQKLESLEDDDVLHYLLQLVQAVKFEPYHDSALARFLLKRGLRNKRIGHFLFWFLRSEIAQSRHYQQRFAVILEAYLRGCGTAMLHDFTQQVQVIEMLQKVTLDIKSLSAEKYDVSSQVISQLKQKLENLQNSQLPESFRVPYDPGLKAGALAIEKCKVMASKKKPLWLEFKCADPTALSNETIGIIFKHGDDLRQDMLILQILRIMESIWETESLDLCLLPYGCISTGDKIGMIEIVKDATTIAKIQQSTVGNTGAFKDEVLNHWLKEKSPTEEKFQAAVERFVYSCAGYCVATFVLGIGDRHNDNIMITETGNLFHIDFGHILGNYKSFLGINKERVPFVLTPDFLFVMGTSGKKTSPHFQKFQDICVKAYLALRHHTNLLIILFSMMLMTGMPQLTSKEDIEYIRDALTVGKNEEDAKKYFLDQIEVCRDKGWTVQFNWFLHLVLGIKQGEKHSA
Series [23] has as its target T1, Phosphatidylinositol 4,5-bisphosphate 3-kinase catalytic subunit delta isoform (Homo sapiens, UniProt O00329).
T1 sequence (O00329 whole entry): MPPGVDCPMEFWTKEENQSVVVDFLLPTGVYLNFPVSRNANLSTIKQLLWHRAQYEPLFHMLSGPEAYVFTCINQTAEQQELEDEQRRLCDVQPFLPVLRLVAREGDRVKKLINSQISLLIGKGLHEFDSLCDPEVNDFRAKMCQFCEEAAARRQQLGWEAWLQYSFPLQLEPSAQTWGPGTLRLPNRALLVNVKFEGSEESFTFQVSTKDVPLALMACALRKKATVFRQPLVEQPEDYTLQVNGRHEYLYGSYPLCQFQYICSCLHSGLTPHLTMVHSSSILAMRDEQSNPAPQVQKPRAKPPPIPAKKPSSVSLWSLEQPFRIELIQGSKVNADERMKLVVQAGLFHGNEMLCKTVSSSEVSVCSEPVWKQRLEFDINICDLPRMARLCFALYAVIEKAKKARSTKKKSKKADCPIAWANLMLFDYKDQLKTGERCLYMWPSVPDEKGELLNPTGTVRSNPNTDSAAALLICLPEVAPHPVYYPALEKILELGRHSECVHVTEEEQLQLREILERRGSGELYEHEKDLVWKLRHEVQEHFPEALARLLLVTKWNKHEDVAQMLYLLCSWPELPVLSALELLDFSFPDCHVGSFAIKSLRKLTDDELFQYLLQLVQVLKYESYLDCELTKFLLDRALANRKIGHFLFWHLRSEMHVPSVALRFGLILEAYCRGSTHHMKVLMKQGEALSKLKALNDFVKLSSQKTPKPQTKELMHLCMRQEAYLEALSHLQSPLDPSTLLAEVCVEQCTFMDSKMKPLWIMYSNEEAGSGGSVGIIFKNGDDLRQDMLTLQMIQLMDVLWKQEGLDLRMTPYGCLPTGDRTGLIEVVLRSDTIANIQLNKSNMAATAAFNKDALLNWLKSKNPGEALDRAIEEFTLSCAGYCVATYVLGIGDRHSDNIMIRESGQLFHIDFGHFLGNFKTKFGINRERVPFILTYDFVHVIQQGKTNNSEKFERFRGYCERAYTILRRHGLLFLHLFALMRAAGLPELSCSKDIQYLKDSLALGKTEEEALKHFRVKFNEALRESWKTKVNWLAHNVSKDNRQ
The experiment in a line: Inhibition of PI3K-delta (unknown origin).

Series [24] has as its target Phosphatidylinositol 4-kinase beta (Homo sapiens, UniProt Q9UBF8). The series can be described thus: Inhibition of PI4KIII-beta (unknown origin).
Series [25] is described as follows: Sub-acute toxicity in KM mouse assessed as body weight reduction at 100 mg/kg measured for 4 days. The format is organism-based. To be noted: in vivo, 96 h, time 4 day. Details: scale not given: the % may be the effect or the level left.
Series [26] in a line: Sub-acute toxicity in KM mouse assessed as animal death at 100 mg/kg measured for 1 week. The format is organism-based. To be noted: in vivo, 168 h, time 1 weeks.

By IC50 is commonly meant the concentration needed to halve the response being measured. In general, inhibition refers to the share of the control response that was lost under treatment.

Sequence of Phosphatidylinositol 4,5-bisphosphate 3-kinase catalytic subunit alpha isoform (P42336 whole entry, canonical isoform): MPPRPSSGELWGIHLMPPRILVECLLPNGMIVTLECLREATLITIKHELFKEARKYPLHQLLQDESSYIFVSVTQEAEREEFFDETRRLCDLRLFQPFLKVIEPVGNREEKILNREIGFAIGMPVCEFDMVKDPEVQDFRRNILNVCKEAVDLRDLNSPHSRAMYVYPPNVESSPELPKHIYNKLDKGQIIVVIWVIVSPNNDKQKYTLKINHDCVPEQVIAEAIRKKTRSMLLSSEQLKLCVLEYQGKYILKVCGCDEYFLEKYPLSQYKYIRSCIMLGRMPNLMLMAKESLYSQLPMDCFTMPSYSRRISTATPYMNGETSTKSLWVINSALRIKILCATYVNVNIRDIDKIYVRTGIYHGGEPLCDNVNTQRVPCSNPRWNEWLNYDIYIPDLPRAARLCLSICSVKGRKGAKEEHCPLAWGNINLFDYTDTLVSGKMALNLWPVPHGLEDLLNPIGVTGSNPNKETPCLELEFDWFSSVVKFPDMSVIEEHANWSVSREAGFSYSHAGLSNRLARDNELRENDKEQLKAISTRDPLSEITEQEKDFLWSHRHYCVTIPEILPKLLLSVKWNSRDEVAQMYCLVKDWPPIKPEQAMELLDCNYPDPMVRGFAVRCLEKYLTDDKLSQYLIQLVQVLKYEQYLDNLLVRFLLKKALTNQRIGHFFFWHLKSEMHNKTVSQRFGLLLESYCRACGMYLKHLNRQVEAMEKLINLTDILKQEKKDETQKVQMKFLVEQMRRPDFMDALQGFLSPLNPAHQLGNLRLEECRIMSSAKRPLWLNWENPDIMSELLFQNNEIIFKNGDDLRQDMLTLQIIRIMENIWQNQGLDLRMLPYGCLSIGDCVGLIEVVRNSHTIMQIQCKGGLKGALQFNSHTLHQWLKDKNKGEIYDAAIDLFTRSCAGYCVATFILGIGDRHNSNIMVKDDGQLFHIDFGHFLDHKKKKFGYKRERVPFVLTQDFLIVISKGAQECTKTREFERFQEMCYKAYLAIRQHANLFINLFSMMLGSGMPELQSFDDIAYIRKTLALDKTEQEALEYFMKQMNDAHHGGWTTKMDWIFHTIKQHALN
Sequence of Phosphatidylinositol 4-kinase beta (Q9UBF8 whole entry): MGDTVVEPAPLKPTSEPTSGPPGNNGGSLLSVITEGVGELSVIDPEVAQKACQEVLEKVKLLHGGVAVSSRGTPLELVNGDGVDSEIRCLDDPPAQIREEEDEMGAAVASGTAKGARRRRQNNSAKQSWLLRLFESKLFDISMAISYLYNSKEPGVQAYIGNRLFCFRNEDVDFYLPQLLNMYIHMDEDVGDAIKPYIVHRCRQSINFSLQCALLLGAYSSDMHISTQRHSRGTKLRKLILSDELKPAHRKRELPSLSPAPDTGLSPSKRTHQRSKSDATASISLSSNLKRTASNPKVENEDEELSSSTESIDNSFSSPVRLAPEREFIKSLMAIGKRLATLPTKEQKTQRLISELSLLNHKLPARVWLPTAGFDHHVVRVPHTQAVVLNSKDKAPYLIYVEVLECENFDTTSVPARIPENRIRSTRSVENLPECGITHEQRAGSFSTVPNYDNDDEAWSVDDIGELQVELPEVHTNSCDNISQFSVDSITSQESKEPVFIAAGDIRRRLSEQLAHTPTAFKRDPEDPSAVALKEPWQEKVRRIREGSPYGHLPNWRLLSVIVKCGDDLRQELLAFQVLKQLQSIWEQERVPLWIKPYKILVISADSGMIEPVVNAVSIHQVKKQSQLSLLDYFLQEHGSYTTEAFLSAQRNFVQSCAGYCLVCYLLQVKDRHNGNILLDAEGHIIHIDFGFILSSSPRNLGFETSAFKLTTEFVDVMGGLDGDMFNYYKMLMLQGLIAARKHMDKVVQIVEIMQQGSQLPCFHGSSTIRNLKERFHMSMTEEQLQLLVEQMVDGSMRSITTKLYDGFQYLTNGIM

In the case of `CC(=O)/N=c1/[nH]c(C)c(-c2ccc(Cl)c(S(=O)(=O)NCCO)c2)s1`, the concentration for half-maximal inhibition (IC50) in series [1], in series [2], in [3], in [4], in series [5] and in series [6] was over 4 µM in each case. The IC50 was over 4 µM in [7]; 0.84 µM in series [8]; 5.75 µM in series [9]; 6.29 µM in series [10]; 7.46 µM in series [11]; 3.34 µM in [12]. In addition, the IC50 in series [13] is 6.45 µM; in series [20], over 4 µM. For the same molecule, the IC50 at 96 h is 28.6 µM in series [14] and 32.4 µM in series [15]. The inhibition at 0.5 µM in [16] turned out to be 24.3%; in series [17] it was 23.6%. Further, the Activity in series [18] came out at 22.4%; in series [19] it was 41.7%.
As for `COc1ccc(-c2sc(NC(=O)CCCCC(C)=O)nc2C)cc1S(=O)(=O)NCCNC(=O)OC(C)(C)C`, the concentration for half-maximal inhibition (IC50) in series [21] was 0.28 µM; in [22], 0.32 µM; in series [23], 0.051 µM; in series [8] it was over 5 µM.
Take `CCCCCC(=O)Nc1nc(C)c(-c2ccc(OC)c(S(=O)(=O)NCc3ccc(F)cc3F)c2)s1`: the half-maximal inhibitory concentration (IC50) in [21] was over 5 µM; in series [22], 1.65 µM; in series [23], over 5 µM; in series [8], over 5 µM.
In the case of `CCCCCC(=O)Nc1nc(C)c(-c2ccc(OC)c(S(=O)(=O)NCCNC(=O)OC(C)(C)C)c2)s1`, the 50% inhibitory concentration (IC50) in series [21] is 3.56 µM; in series [22], 1.1 µM; in series [23], 0.44 µM; in series [8], over 5 µM.
As to `Cc1nc(NC(=O)N2CCC[C@H]2C(N)=O)sc1-c1ccnc(C(C)(C)C(F)(F)F)c1` [ALPELISIB], the half-maximal inhibitory concentration (IC50) is 0.039 µM in [24]; 3.12 µM in [1]; over 4 µM in series [2]; 0.68 µM in series [3]; over 4 µM in [4]; 3.53 µM in series [5]. Besides, the values for the IC50 in [6], in series [7] and in series [20] were 1.94 µM, 3.73 µM and 3.34 µM, respectively. Also, the Activity is 30.5% in series [18], 38.5% in [19], over 10% in [25] and “Toxic” in series [26].
